Measurements reported in US12060360B2, “Lysyl oxidase inhibitors” (The Institute of Cancer Research: Royal Cancer Hospital, priority 2017, dated 2024).

Target: T1, LOX (Mus musculus, UniProt P28301)
T1 construct: Full length LOX cDNA was then PCR cloned into pEGFP-N1 (Clonetech), or biosensor vector proGFP2-N1; expressed in transfected cells; host or cells: MDCK cells grown as cysts on Matrigel, G418-selected
T1 sequence (P28301 163-411): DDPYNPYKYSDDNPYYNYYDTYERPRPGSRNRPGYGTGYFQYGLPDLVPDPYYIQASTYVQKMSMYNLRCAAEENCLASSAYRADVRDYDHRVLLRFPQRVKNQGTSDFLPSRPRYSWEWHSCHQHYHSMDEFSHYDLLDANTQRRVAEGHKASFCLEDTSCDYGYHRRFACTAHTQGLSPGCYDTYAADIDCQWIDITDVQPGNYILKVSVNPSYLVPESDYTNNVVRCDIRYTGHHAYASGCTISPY
Test: LOX activity in cysts assay (LOX-roGFP2 biosensor, MDCK cysts)
Assay type: cell-based
Settings: for inhibition at 10 µM / inhibition at 2.5 µM / IC50: MDCK cysts; for inhibition at 10 µM: inhibitor added 30 min prior to imaging, read-out: LOX biosensor inhibition (cyst) @ 10 uM; for inhibition at 10 µM / inhibition at 2.5 µM: DMSO = 0%, BAPN 1 mM = 100% inhibition; for inhibition at 2.5 µM: 2.5 uM (stated in cell), read-out: LOX biosensor inhibition (cyst) @ 2.5 uM; for IC50: roGFP2 ratio at basal surface, read-out: LOX biosensor IC50 (cyst)
Protocol: LOX Activity in Cysts Assay (Tang et al, 2017).
All cell lines used in this study were purchased from American Type Culture Collection (ATCC). Mycoplasma contamination was routinely monitored by PCR. Cells used were not found to be Mycoplasma positive. MDCK cell lines were cultured in Dulbecco's Modified Eagle Medium (DMEM) supplemented with 10% fetal bovine serum (FBS) and 1% Penicillin Streptomycin solution (Pen Strep). For GFP constructs transfection in MDCK cells, lipofectamine 3000 was used according to manufactures protocols. Cells were either selected with G418 (Life Technologies) at 5 mg/ml. All cell culture reagents were purchased from Life Technologies.
To produce MDCK cysts, cells were cultured on Matrigel (Corning) with 2% Matrigel supplemented in DMEM with 10% FBS. Cysts were allowed to form for 10 days before subsequent studies.
Mouse LOX cDNA was purchased from OriGene. Full length LOX cDNA was then PCR cloned into pEGFP-N1 (Clonetech), or biosensor vector proGFP2-N1 (Hanson, 2004) using the following primers, […] (forward primer) and […] (reverse primer). For the insertion into pEGFP-N1 or proGFP2-N1, NheI and XhoI restriction sites were added to forward and reverse primers accordingly. Mutant LOX constructs were made using QuickChange II site-directed mutagenesis kit (Agilent Technologies) following manufacture's protocol using LOX-GFP as template. To generate, roGFP2 versions of LOX mutant constructs, LOX mutant cDNA was transferred from pEGFP-N1 to proGFP2-N1 using NheI and XhoI.
All photomicrographs were taken with a Leica TCS SP8 X confocal system. For LOX biosensor imaging, live MDCK cysts were used. The oxidised biosensor was excited using a 405 nm laser, while the reduced biosensor was excited with a 488 nm laser. Emission of the biosensor was recorded at 500 nm˜530 nm range using sequential scans. Ratio images were generated following a published protocol {Kardash, 2011 #376}. Note, while the published protocol generates YFP/CFP ratio images, we used it to generate Oxidised/Reduced (roGFP2 ratio) ratio images. The roGFP2 ratio at the basal surface of MDCK cysts was used to indicate LOX inhibition. LOX inhibitors were added 30 min prior to imaging.
For clarity, readout for DMSO treated cysts represents 0% inhibition (no inhibition) and readout for BAPN at 1 mM is used as 100% inhibition (full inhibition).

CCOc1ccc(N2C[C@H]3CN(C(=O)NNCCO)C[C@@H]2C(C)(C)C3)cc1 (stereo in doubt) [Example 29, 6-(4-ethoxyphenyl)-N′-(2-hydroxyethyl)-9,9-dimethyl-3,6-diazabicyclo[3.2.2]nonane-3-carbohydrazide] was tested. Which inhibition at 10 µM did it give?
The inhibition at 10 µM was 100%.

For N#CCCN [BAPN, β-aminopropionitrile, reference compound], which “LOX inhibition in cysts assay (reference used as full inhibition)” value (1 mM, readout used as 100% inhibition) is on record?
The value was 100%.

CCOc1ccc(N2C[C@H]3CN(C(=O)Nc4ccc(OC)cc4)C[C@@H]2C(C)(C)C3)cc1 [Example 1, (1S,5S)-6-(4-ethoxyphenyl)-N-(4-methoxyphenyl)-9,9-dimethyl-3,6-diazabicyclo[3.2.2]nonane-3-carboxamide] was tested. Which inhibition at 10 µM did it give?
Its inhibition at 10 µM is 91%.

With CCNC(=O)N1C[C@@H]2CN(c3ccc(F)cc3)[C@H](C1)C(C)(C)C2 [Example 2, (1 S,5S)—N-ethyl-6-(4-fluorophenyl)-9,9-dimethyl-3,6-diazabicyclo[3.2.2]nonane-3-carboxamide] as the compound, how does the inhibition at 2.5 µM read?
The inhibition at 2.5 µM was 92%.

For CCNC(=O)N1C[C@@H]2CN(c3ccc(OCCOC)cc3)[C@H](C1)C(C)(C)C2 [Example 3, (1S,5S)—N-ethyl-6-(4-(2-methoxyethoxy)phenyl)-9,9-dimethyl-3,6-diazabicyclo[3.2.2]nonane-3-carboxamide], which inhibition at 10 µM is on record?
The inhibition at 10 µM was 88%.

With CC1(C)C[C@@H]2CN(C(=O)NCCO)C[C@H]1N(c1ccc(N3CCS(=O)(=O)CC3)cc1)C2 [Example 5, (1S,5S)-6-(4-(1,1-dioxidothiomorpholino)phenyl)-N-(2-hydroxyethyl)-9,9-dimethyl-3,6-diazabicyclo[3.2.2]nonane-3-carboxamide] as the compound, how does the inhibition at 10 µM read?
The inhibition at 10 µM was 62%.

For CNC(=O)N1C[C@@H]2CN(c3ccc(N4CCS(=O)(=O)CC4)cc3)[C@H](C1)C(C)(C)C2 [Example 6, (1S,5S)-6-(4-(1,1-dioxidothiomorpholino)phenyl)-N,9,9-trimethyl-3,6-diazabicyclo[3.2.2]nonane-3-carboxamide], which inhibition at 10 µM is on record?
The inhibition at 10 µM was 50%.

Which results are given for CC1(C)C[C@@H]2CN(c3ccc(N4CCS(=O)(=O)CC4)cc3)[C@H]1CCN2C(=O)N1CCS(=O)(=O)CC1 [Example 9, (1,1-dioxidothiomorpholino)((1R,5S)-6-(4-(1,1-dioxidothiomorpholino)phenyl)-9,9-dimethyl-2,6-diazabicyclo[3.2.2]nonan-2-yl)methanone]?
inhibition at 10 µM: 100%; IC50: 690 nM

Which inhibition at 10 µM does the source give for CC1(C)C[C@@H]2CN(C(=O)NC3CCS(=O)(=O)CC3)C[C@H]1N(c1ccc(N3CCS(=O)(=O)CC3)cc1)C2 [Example 11, (1S,5S)-N-(1,1-dioxidotetrahydro-2H-thiopyran-4-yl)-6-(4-(1,1-dioxidothiomorpholino)phenyl)-9,9-dimethyl-3,6-diazabicyclo[3.2.2]nonane-3-carboxamide] here?
Its inhibition at 10 µM is 100%.

Which inhibition at 10 µM does the source give for CCOc1ccc(N2C[C@H]3CN(C(=O)N(CCO)CCO)C[C@@H]2C(C)(C)C3)cc1 [Example 14, (1S,5S)-6-(4-ethoxyphenyl)-N,N-bis(2-hydroxyethyl)-9,9-dimethyl-3,6-diazabicyclo[3.2.2]nonane-3-carboxamide] here?
The inhibition at 10 µM was 75%.

CCOc1ccc(N2C[C@H]3CN(C(=O)N4CC[C@H](O)C4)C[C@@H]2C(C)(C)C3)cc1 [Example 15, ((1S,5S)-6-(4-ethoxyphenyl)-9,9-dimethyl-3,6-diazabicyclo[3.2.2]nonan-3-yl)((S)-3-hydroxypyrrolidin-1-yl)methanone] was tested. Which inhibition at 10 µM did it give?
The inhibition at 10 µM was 84%.

With CCOc1ccc(N2C[C@H]3CN(C(=O)N(C)CCC#N)C[C@@H]2C(C)(C)C3)cc1 [Example 16, (1S,5S)-N-(2-cyanoethyl)-6-(4-ethoxyphenyl)-N,9,9-trimethyl-3,6-diazabicyclo[3.2.2]nonane-3-carboxamide] as the compound, how does the inhibition at 10 µM read?
Its inhibition at 10 µM is 88%.

Which inhibition at 2.5 µM does the source give for CCOc1ccc(N2C[C@H]3CN(C(=O)N4CCC(C#N)CC4)C[C@@H]2C(C)(C)C3)cc1 [Example 17, 1-((1S,5S)-6-(4-ethoxyphenyl)-9,9-dimethyl-3,6-diazabicyclo[3.2.2]nonane-3-carbonyl)piperidine-4-carbonitrile] here?
Its inhibition at 2.5 µM is 77%.

Which inhibition at 10 µM does the source give for CCOc1ccc(N2C[C@H]3CN(C(=O)N4CCC(N5CCCC5)CC4)C[C@@H]2C(C)(C)C3)cc1 [Example 18, ((1S,5S)-6-(4-ethoxyphenyl)-9,9-dimethyl-3,6-diazabicyclo[3.2.2]nonan-3-yl)(4-(pyrrolidin-1-yl)piperidin-1-yl)methanone] here?
The inhibition at 10 µM was 84%.

For CCOc1ccc(N2C[C@H]3CN(C(=O)NC[C@@H](O)CO)C[C@@H]2C(C)(C)C3)cc1 [Example 19, (1S,5S)-N-((R)-2,3-dihydroxypropyl)-6-(4-ethoxyphenyl)-9,9-dimethyl-3,6-diazabicyclo[3.2.2]nonane-3-carboxamide], which inhibition at 10 µM is on record?
Its inhibition at 10 µM is 100%.

For CCOc1ccc(N2C[C@@H]3CC(C)(C)[C@H]2CCN3C(=O)NCCO)cc1 [Example 20, (1S,5R)-6-(4-ethoxyphenyl)-N-(2-hydroxyethyl)-9,9-dimethyl-2,6-diazabicyclo[3.2.2]nonane-2-carboxamide], which inhibition at 10 µM is on record?
The inhibition at 10 µM was 79%.

How did the inhibition at 10 µM turn out when CCOc1ccc(N2C[C@@H]3CN(C(=O)NCCO)C[C@H]2C(C)(C)C3)cc1 [Example 21, (1R,5R)-6-(4-ethoxyphenyl)-N-(2-hydroxyethyl)-9,9-dimethyl-3,6-diazabicyclo[3.2.2]nonane-3-carboxamide] was run?
Its inhibition at 10 µM is 94%.

Which inhibition at 10 µM does the source give for CCOc1ccc(N2C[C@H]3CC(C)(C)[C@@H]2CCN3C(=O)NCCO)cc1 [Example 22, (1R,5S)-6-(4-ethoxyphenyl)-N-(2-hydroxyethyl)-9,9-dimethyl-2,6-diazabicyclo[3.2.2]nonane-2-carboxamide] here?
Its inhibition at 10 µM is 100%.

CCOc1ccc(N2C[C@@H]3CC4(CCCCC4)[C@H]2CCN3C(=O)NCCO)cc1 [Example 23, (1S,5R)-6-(4-ethoxyphenyl)-N-(2-hydroxyethyl)-2,6-diazaspiro[bicyclo[3.2.2]nonane-9,1′-cyclohexane]-2-carboxamide] was tested. Which inhibition at 10 µM did it give?
Its inhibition at 10 µM is 100%.

What about the IC50 of the same compound?
Its IC50 is 370 nM.

How did the inhibition at 10 µM turn out when CCOc1cccc(N2C[C@H]3CN(C(=O)NCCO)C[C@@H]2C(C)(C)C3)c1 [Example 24, (1S,5S)-6-(3-ethoxyphenyl)-N-(2-hydroxyethyl)-9,9-dimethyl-3,6-diazabicyclo[3.2.2]nonane-3-carboxamide] was run?
The inhibition at 10 µM was 100%.

And the IC50?
The IC50 was less than 630 nM.

Which inhibition at 10 µM does the source give for CCOc1ccc(N2C[C@H]3CN(C(=O)Nc4cc(C)n[nH]4)C[C@@H]2C(C)(C)C3)cc1 [Example 25, (1S,5S)-6-(4-ethoxyphenyl)-9,9-dimethyl-N-(3-methyl-1H-pyrazol-5-yl)-3,6-diazabicyclo[3.2.2]nonane-3-carboxamide] here?
The inhibition at 10 µM was 73%.

With CC1(C)C[C@@H]2CN(C(=O)NCCO)C[C@H]1N(c1ccc(Oc3ccccn3)cc1)C2 [Example 28, (1S,5S)-N-(2-hydroxyethyl)-9,9-dimethyl-6-(4-(pyridin-2-yloxy)phenyl)-3,6-diazabicyclo[3.2.2]nonane-3-carboxamide] as the compound, how does the inhibition at 10 µM read?
The inhibition at 10 µM was 100%.

With CC1(C)C[C@@H]2CN(C(=O)NCCO)C[C@H]1N(c1ccc(N3CCC(F)(F)CC3)cc1)C2 [Example 30, (1S,5S)-6-(4-(4,4-difluoropiperidin-1-yl)phenyl)-N-(2-hydroxyethyl)-9,9-dimethyl-3,6-diazabicyclo[3.2.2]nonane-3-carboxamide] as the compound, how does the inhibition at 10 µM read?
The inhibition at 10 µM was 100%.

And the IC50?
Its IC50 is 330 nM.

How did the inhibition at 10 µM turn out when CC1(C)C[C@@H]2CN(C(=O)N3CCS(=O)(=O)CC3)C[C@H]1N(c1ccc(N3CCN(S(C)(=O)=O)CC3)cc1)C2 [Example 31, ((1S,5S)-9,9-dimethyl-6-(4-(4-(methylsulfonyl)-1λ4-piperazin-1-yl)phenyl)-3,6-diazabicyclo[3.2.2]nonan-3-yl)(1,1-dioxidothiomorpholino)methanone] was run?
The inhibition at 10 µM was 100%.

And the IC50?
Its IC50 is less than 180 nM.

CC1(C)C[C@@H]2CN(C(=O)NCCO)C[C@H]1N(c1ccc(N3CCCCC3)cc1)C2 [Example 32, (1S,5S)-N-(2-hydroxyethyl)-9,9-dimethyl-6-(4-(piperidin-1-yl)phenyl)-3,6-diazabicyclo[3.2.2]nonane-3-carboxamide] was tested. Which inhibition at 10 µM did it give?
The inhibition at 10 µM was 90%.

What about the IC50 of the same compound?
Its IC50 is less than 180 nM.
